{"source": "patent US20250280816A1", "about": "“INSECT TRAP” (Scotts Canada Ltd., priority 2017, published 2025)", "type_in_all_cases": "in vivo, Cimex lectularius", "key": {"[1]": {"tested_on": "bed bugs (C. lectularius)", "assay": "three-dish, dual-choice olfactometer bioassay", "conditions": "Exp. 23-37; nymphs; amounts in micrograms in parentheses of the bait", "excerpt": "Bioassays were run in dual-choice olfactometers and in large Plexiglass arenas (FIG. 19). Dual-choice olfactometers consisted of two lateral Pyrex® glass Petri dishes, connected to a central dish (all dishes 3×9 cm inner diameter) via a Pyrex® glass tube (2.5 cm long×2 cm inner diameter). The dishes in this olfactometer mimic the natural still-air shelters in which bed bugs spend the day. Prior to the start of bioassays, a disc of paper toweling (9 cm diameter) was placed into each dish and a strip of paper toweling (2.4×0.6 cm) was inserted into the connecting glass tubing to provide traction for walking bed bugs. In addition, a piece of filter paper (2×3 cm; Whatman) was placed into each lateral dish and covered with a piece of cardboard (2×2 cm) as a refuge for bioassay insects.\nTreatment and control stimuli were randomly assigned to each lateral dish. Olfactometers were enclosed in opaque plastic bins to prevent light from entering and affecting the insects' responses. For each replicate, a single 3rd, 4th, or 5th instar C. lectularius nymph was released into the central chamber of the olfactometer, which was then covered with a glass plate to prevent escape. The single bed bug in each olfactometer was then allowed to explore all chambers. Each insect was released into an olfactometer at the end of the 14-h photophase allowing it to explore the chambers during 10 h of darkness, and to come to rest in one of the shelters during 10 h of light. After this 20-h period, the insect's position within the olfactometer was recorded. Any insects not found in a lateral chamber were recorded as non-responders. All experimental replicates were run at 24±2° C. and 30-60% RH. Olfactometers were washed with Sparkleen detergent (Fisher Scientific Co, Pittsburgh, PA, USA), and were oven-dried (Precision, Winchester, VA, USA) between each bioassay."}, "bed bugs [2]": {"tested_on": "bed bugs", "assay": "large Plexiglass arena bioassay with baited shelters", "conditions": "adult males", "excerpt": "The large two-chamber Plexiglass arena (180 cm long×12 cm high×13 cm wide) was designed with a central divider (180 cm long×5.5 cm high) to accommodate two pieces of wood (162 cm long×3.8 cm wide×0.8 cm high), each piece for testing the response of a single bed bug to a pheromone-baited shelter or a control shelter (see insert in FIG. 19) which were randomly assigned to either end of the wood. […] For each replicate, a single bed bug was placed in the center of the wood piece just prior to the end of the 14-h photophase, and its position was scored the next morning after the onset of the photophase.\nExperiments 68-75 also investigated the effect of the volatile pheromone components (VPCs) (E)-2-hexenal, (E)-2-octenal, dimethyl disulfide, dimethyl trisulfide and 2-hexanone, and the effect of the less-volatile pheromone component histamine (H), on attraction and arrestment of bed bugs. Treatment stimuli consisted of filter paper (4×2.2 cm) impregnated with H (2,000 μg) and covered with a piece of corrugated cardboard shelter (3×2.2 cm), and of VPCs formulated at a high dose (500 μg; Experiments 68-74) or a medium dose (50 μg; Exp. 75) in mineral oil (0.5 mL) and pipetted into the inverted lid of a 20-ml scintillation vial resting on top of the shelter (FIG. 19). Control stimuli were of identical design but the filter paper contained no H, and the mineral oil contained no VPCs."}, "bed bugs [3]": {"tested_on": "bed bugs", "assay": "pheromone-baited shelter traps in a heavily infested residential apartment (Room 106)", "conditions": "Exp. 76-79, 24-h periods; for Mean ± SE number insects in baited shelter: VPCs total 500 μg, histamine 2,000 μg, nymphal and adult bed bugs; for Mean (±SE) number insects in control shelter: unbaited control shelter paired with the baited shelter", "description": "To determine whether bed bugs responded to synthetic pheromone lures not only in large arena laboratory bioassays but also in infested premises (residential apartments), we placed pheromone-baited shelter traps (see FIG. 19) in apartments with known or suspected bed bug infestations. […] Based on 24-hour trapping results in multiple apartments, we selected a single, heavily infested apartment (hereafter referred to as Room 106) for further testing of synthetic bed bug pheromone lures.\nReplicates (n=15-20) of each experiment consisted of paired shelters placed against a wall or furniture, with approximately 30-cm spacing between paired shelters and >1 m spacing between shelter pairs. For each shelter pair within each experiment, pheromone and control treatments were randomly assigned, and placement of replicates was alternated between the two experiments of Set 1 and Set 2. Because not more than 10 shelter pairs could be accommodated in Room 106 at any time, experimental data were collected over several consecutive 24-h periods. Every morning at 9:00, shelters were collected from Room 106 and immediately placed into separate labelled zipper lock bags which were then put on dry ice to kill the bed bugs that had entered a shelter. Bed bugs in each shelter were later counted in the laboratory under a microscope, noting their developmental stage (1st, 2nd, 3rd, or 4th instar, adult), sex (male, female), and evidence (or not) for blood feeding prior to entry into a shelter. Immediately following the removal of bed bug shelters from Room 106 each morning, new pre-prepared shelters were pheromone-baited (treatment) or not (control) and their position within shelter pairs randomly assigned (see above), again alternating placement of shelter pairs between Experiments 76 and 77 (Set 1) and between Experiments 78 and 79 (Set 2)."}}, "data": [{"compound": "NCCc1c[nH]cn1", "note": "[H, histamine]", "values": [{"measurement": "No. insects in bait chamber", "setting": "[1]", "value": 35}, {"measurement": "No. insects in control chamber", "setting": "[1]", "value": 10}, {"measurement": "No. insects not responding", "setting": "[1]", "value": 3}, {"measurement": "No. insects in shelter 1", "setting": "bed bugs [2]; Exp. 68-71, 73, baited shelter 1 vs unbaited shelter 2, VPCs 500 μg, histamine 2,000 μg", "value": 12}, {"measurement": "No. insects not responding", "setting": "bed bugs [2]; Exp. 68-71, 73, baited shelter 1 vs unbaited shelter 2", "value": 5}, {"measurement": "No. insects in shelter 2", "setting": "bed bugs [2]; Exp. 68-71, 73, unbaited shelter 2 paired with the baited shelter 1", "value": 1}, {"measurement": "No. insects in shelter 2", "setting": "bed bugs [2]; Exp. 68-71, 73, unbaited shelter 2 paired with the baited shelter 1, listed as histamine", "value": "one"}, {"measurement": "No. insects in shelter 2", "setting": "bed bugs [2]; Exp. 72, shelter 2 H (2,000 μg) vs shelter 1 VPC (500 μg)", "value": 14}, {"measurement": "No. insects in shelter 2", "setting": "bed bugs [2]; Exp. 74, shelter 2 H (2,000 μg) vs shelter 1 VPC (500 μg) + H", "value": 5}, {"measurement": "No. insects in shelter 2", "setting": "bed bugs [2]; Exp. 75, shelter 2 H (2,000 μg) vs shelter 1 VPC (50 μg) + H", "value": 0}, {"measurement": "Mean ± SE number insects in baited shelter", "setting": "bed bugs [3]", "value": "6.06 ± 1.28"}, {"measurement": "Mean ± SE number insects in baited shelter", "setting": "bed bugs [3]; listed as histamine", "value": 6.06}, {"measurement": "Mean (±SE) number insects in control shelter", "setting": "bed bugs [3]", "value": "4.53 ± 1.8"}, {"measurement": "Mean (±SE) number insects in control shelter", "setting": "bed bugs [3]; listed as histamine", "value": 4.53}]}]}
